The values below come from patent publication US10323036B2 (Nimbus Lakshmi, Inc., priority 2016, dated 2019).

Where only a bound is given, the exact number is not on record here.

The target in this experiment is human TYK2 (JH2domain-pseudokinase) (Homo sapiens (Human), UniProt P29597). Briefly: TYK2 JH2 Domain Binding Assay (KINOMEscan). The following applies: Table 4, JH2 binding assay; read-out: JH2 Kd.
human TYK2 (JH2domain-pseudokinase), sequence (P29597 556-888): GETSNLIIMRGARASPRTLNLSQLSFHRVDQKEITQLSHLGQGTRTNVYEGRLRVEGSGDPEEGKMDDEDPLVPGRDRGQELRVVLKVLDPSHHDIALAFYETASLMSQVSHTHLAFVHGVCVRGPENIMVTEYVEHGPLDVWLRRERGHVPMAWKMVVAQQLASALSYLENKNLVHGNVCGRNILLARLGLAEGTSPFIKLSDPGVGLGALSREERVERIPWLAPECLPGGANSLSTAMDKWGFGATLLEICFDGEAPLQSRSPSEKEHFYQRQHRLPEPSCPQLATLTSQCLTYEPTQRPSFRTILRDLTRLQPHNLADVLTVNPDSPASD
Turning to `COc1c(Nc2cc(Nc3ccc(C)cn3)nc3[nH]n(C)c(=O)c23)cccc1-c1nnn(C)n1` [Compound I-3, 4-((2-methoxy-3-(2-methyl-2H-tetrazol-5-yl)phenyl)amino)-2-methyl-6-((5-methylpyridin-2-yl)amino)-1,2-dihydro-3H-pyrazolo[3,4-b]pyridin-3-one], the Kd (commonly a measure of binding affinity in units of concentration) is 0.1 to 0.5 nM.
As to `COc1c(Nc2cc(Nc3ccccn3)nc3[nH]n(C)c(=O)c23)cccc1-c1nnn(C)n1` [Compound I-4, 4-((2-methoxy-3-(2-methyl-2H-tetrazol-5-yl)phenyl)amino)-2-methyl-6-(pyridin-2-ylamino)-1,2-dihydro-3H-pyrazolo[3,4-b]pyridin-3-one], the Kd lay in the range of 0.1 to 0.5 nM.
For `COc1c(Nc2cc(Nc3cc(C)ccn3)nc3[nH]n(C)c(=O)c23)cccc1-c1nnn(C)n1` [Compound I-5, 4-((2-methoxy-3-(2-methyl-2H-tetrazol-5-yl)phenyl)amino)-2-methyl-6-((4-methylpyridin-2-yl)amino)-1,2-dihydro-3H-pyrazolo[3,4-b]pyridin-3-one], the Kd was above 10 nM.
`COc1c(Nc2cc(Nc3cc(CO)ccn3)nc3[nH]n(C)c(=O)c23)cccc1-c1nnn(C)n1` [Compound I-6, 6-((4-(hydroxymethyl)pyridin-2-yl)amino)-4-((2-methoxy-3-(2-methyl-2H-tetrazol-5-yl)phenyl)amino)-2-methyl-1,2-dihydro-3H-pyrazolo[3,4-b]pyridin-3-one]: the Kd was above 10 nM.
Take `COc1c(Nc2cc(Nc3ccc(N4CCOCC4)cn3)nc3[nH]n(C)c(=O)c23)cccc1-c1nnn(C)n1` [Compound I-7, 4-((2-methoxy-3-(2-methyl-2H-tetrazol-5-yl)phenyl)amino)-2-methyl-6-((5-morpholinopyridin-2-yl)amino)-1,2-dihydro-3H-pyrazolo[3,4-b]pyridin-3-one]: the Kd fell in the range of 1 to 10 nM.
As for `COc1c(Nc2cc(Nc3cc(C)c(F)cn3)nc3[nH]n(C)c(=O)c23)cccc1-c1nnn(C)n1` [Compound I-8, 6-((5-fluoro-4-methylpyridin-2-yl)amino)-4-((2-methoxy-3-(2-methyl-2H-tetrazol-5-yl)phenyl)amino)-2-methyl-1,2-dihydro-3H-pyrazolo[3,4-b]pyridin-3-one], the Kd was below 0.1 nM.
Consider `COc1c(Nc2cc(Nc3cc(C)nc(C)n3)nc3[nH]n(C)c(=O)c23)cccc1-c1nnn(C)n1` [Compound I-9, 6-((2,6-dimethylpyrimidin-4-yl)amino)-4-((2-methoxy-3-(2-methyl-2H-tetrazol-5-yl)phenyl)amino)-2-methyl-1,2-dihydro-3H-pyrazolo[3,4-b]pyridin-3-one], for which the Kd was below 0.1 nM.
For the molecule `COc1c(Nc2cc(Nc3ccc(C)nn3)nc3[nH]n(C)c(=O)c23)cccc1-c1nnn(C)n1` [Compound I-10, 4-((2-methoxy-3-(2-methyl-2H-tetrazol-5-yl)phenyl)amino)-2-methyl-6-((6-methylpyridazin-3-yl)amino)-1,2-dihydro-3H-pyrazolo[3,4-b]pyridin-3-one], the Kd is below 0.1 nM.
Turning to `COc1c(Nc2cc(Nc3ccc(N4CCCCC4)cn3)nc3[nH]n(C)c(=O)c23)cccc1-c1nnn(C)n1` [Compound I-11, 4-((2-methoxy-3-(2-methyl-2H-tetrazol-5-yl)phenyl)amino)-2-methyl-6-((5-(piperidin-1-yl)pyridin-2-yl)amino)-1,2-dihydro-3H-pyrazolo[3,4-b]pyridin-3-one], the Kd was above 10 nM.
Consider `COc1c(Nc2cc(Nc3ccc(C#N)cn3)nc3[nH]n(C)c(=O)c23)cccc1-c1nnn(C)n1` [Compound I-12, 6-((4-((2-methoxy-3-(2-methyl-2H-tetrazol-5-yl)phenyl)amino)-2-methyl-3-oxo-2,3-dihydro-1H-pyrazolo[3,4-b]pyridin-6-yl)amino)nicotinonitrile], for which the Kd is below 0.1 nM.
As for `COc1c(Nc2cc(Nc3ccn(C)n3)nc3[nH]n(C)c(=O)c23)cccc1-c1nnn(C)n1` [Compound I-13, 4-((2-methoxy-3-(2-methyl-2H-tetrazol-5-yl)phenyl)amino)-2-methyl-6-((1-methyl-1H-pyrazol-3-yl)amino)-1,2-dihydro-3H-pyrazolo[3,4-b]pyridin-3-one], the Kd is below 0.1 nM.
With `COCc1ccnc(Nc2cc(Nc3cccc(-c4ncn(C)n4)c3OC)c3c(=O)n(C)[nH]c3n2)c1` [Compound I-15, 4-((2-methoxy-3-(1-methyl-1H-1,2,4-triazol-3-yl)phenyl)amino)-6-((4-(methoxymethyl)pyridin-2-yl)amino)-2-methyl-1,2-dihydro-3H-pyrazolo[3,4-b]pyridin-3-one], the Kd lay within 0.1 to 0.5 nM.
As for `COc1c(Nc2cc(Nc3ccc(C)cn3)nc3[nH]n(C)c(=O)c23)cccc1-c1ncn(C)n1` [Compound I-16, 4-((2-methoxy-3-(1-methyl-1H-1,2,4-triazol-3-yl)phenyl)amino)-2-methyl-6-((5-methylpyridin-2-yl)amino)-1H-pyrazolo[3,4-b]pyridin-3(2H)-one], the Kd fell in the range of 0.1 to 0.5 nM.
Regarding `COc1c(Nc2cc(Nc3ccccn3)nc3[nH]n(C)c(=O)c23)cccc1-c1ncn(C)n1` [Compound I-17, 4-((2-methoxy-3-(1-methyl-1H-1,2,4-triazol-3-yl)phenyl)amino)-2-methyl-6-(pyridin-2-ylamino)-1,2-dihydro-3H-pyrazolo[3,4-b]pyridin-3-one], the Kd is below 0.1 nM.
The value for `COc1c(Nc2cc(Nc3cc(C)ccn3)nc3[nH]n(C)c(=O)c23)cccc1-c1ncn(C)n1` [Compound I-18, 4-((2-methoxy-3-(1-methyl-1H-1,2,4-triazol-3-yl)phenyl)amino)-2-methyl-6-((4-methylpyridin-2-yl)amino)-1,2-dihydro-3H-pyrazolo[3,4-b]pyridin-3-one] was 0.1 to 0.5 nM.
`COc1c(Nc2cc(Nc3cc(CO)ccn3)nc3[nH]n(C)c(=O)c23)cccc1-c1ncn(C)n1` [Compound I-19, 6-((4-(hydroxymethyl)pyridin-2-yl)amino)-4-((2-methoxy-3-(1-methyl-1H-1,2,4-triazol-3-yl)phenyl)amino)-2-methyl-1,2-dihydro-3H-pyrazolo[3,4-b]pyridin-3-one]: the Kd is 1 to 10 nM.
Take `COc1c(Nc2cc(Nc3ccc(N4CCOCC4)cn3)nc3[nH]n(C)c(=O)c23)cccc1-c1ncn(C)n1` [Compound I-20, 4-((2-methoxy-3-(1-methyl-1H-1,2,4-triazol-3-yl)phenyl)amino)-2-methyl-6-((5-morpholinopyridin-2-yl)amino)-1,2-dihydro-3H-pyrazolo[3,4-b]pyridin-3-one]: the Kd was in the range of 0.1 to 0.5 nM.
For `COc1c(Nc2cc(Nc3cc(C)c(F)cn3)nc3[nH]n(C)c(=O)c23)cccc1-c1ncn(C)n1` [Compound I-21, 6-((5-fluoro-4-methylpyridin-2-yl)amino)-4-((2-methoxy-3-(1-methyl-1H-1,2,4-triazol-3-yl)phenyl)amino)-2-methyl-1,2-dihydro-3H-pyrazolo[3,4-b]pyridin-3-one] the value was 0.1 to 0.5 nM; for `COc1c(Nc2cc(Nc3cc(C)nc(C)n3)nc3[nH]n(C)c(=O)c23)cccc1-c1ncn(C)n1` [Compound I-22, 6-((2,6-dimethylpyrimidin-4-yl)amino)-4-((2-methoxy-3-(1-methyl-1H-1,2,4-triazol-3-yl)phenyl)amino)-2-methyl-1,2-dihydro-3H-pyrazolo[3,4-b]pyridin-3-one], 0.5 to 1 nM.
For the molecule `COc1c(Nc2cc(Nc3ccc(C)nn3)nc3[nH]n(C)c(=O)c23)cccc1-c1ncn(C)n1` [Compound I-23, 4-((2-methoxy-3-(1-methyl-1H-1,2,4-triazol-3-yl)phenyl)amino)-2-methyl-6-((6-methylpyridazin-3-yl)amino)-1,2-dihydro-3H-pyrazolo[3,4-b]pyridin-3-one], the Kd is above 10 nM.
Take `COc1c(Nc2cc(Nc3ccc(N4CCCCC4)cn3)nc3[nH]n(C)c(=O)c23)cccc1-c1ncn(C)n1` [Compound I-24, 4-((2-methoxy-3-(1-methyl-1H-1,2,4-triazol-3-yl)phenyl)amino)-2-methyl-6-((5-(piperidin-1-yl)pyridin-2-yl)amino)-1,2-dihydro-3H-pyrazolo[3,4-b]pyridin-3-one]: the Kd was in the range of 0.1 to 0.5 nM.
The value for `COc1c(Nc2cc(Nc3ccc(C#N)cn3)nc3[nH]n(C)c(=O)c23)cccc1-c1ncn(C)n1` [Compound I-25, 6-((4-((2-methoxy-3-(1-methyl-1H-1,2,4-triazol-3-yl)phenyl)amino)-2-methyl-3-oxo-2,3-dihydro-1H-pyrazolo[3,4-b]pyridin-6-yl)amino)nicotinonitrile] was 0.1 to 0.5 nM; that for `COc1c(Nc2cc(Cl)nc3[nH]n(C)c(=O)c23)cccc1-c1nnn(C)n1` [Compound I-27] was above 10 nM; that for `COc1c(Nc2cc(Nc3cccc(C#N)n3)nc3[nH]n(C)c(=O)c23)cccc1-c1nnn(C)n1` [Compound I-28, 6-((4-((2-methoxy-3-(2-methyl-2H-tetrazol-5-yl)phenyl)amino)-2-methyl-3-oxo-2,3-dihydro-1H-pyrazolo[3,4-b]pyridin-6-yl)amino)picolinonitrile] was 1 to 10 nM.
With `COc1c(Nc2cc(Nc3cc(C#N)ncn3)nc3[nH]n(C)c(=O)c23)cccc1-c1nnn(C)n1` [Compound I-29, 6-((4-((2-methoxy-3-(2-methyl-2H-tetrazol-5-yl)phenyl)amino)-2-methyl-3-oxo-2,3-dihydro-1H-pyrazolo[3,4-b]pyridin-6-yl)amino)pyrimidine-4-carbonitrile], the Kd was 0.1 to 0.5 nM.
For `COc1c(Nc2cc(Nc3cccc(C#N)n3)nc3[nH]n(C)c(=O)c23)cccc1-c1ncn(C)n1` [Compound I-30, 6-((4-((2-methoxy-3-(1-methyl-1H-1,2,4-triazol-3-yl)phenyl)amino)-2-methyl-3-oxo-2,3-dihydro-1H-pyrazolo[3,4-b]pyridin-6-yl)amino)picolinonitrile] the value was above 10 nM; for `COc1c(Nc2cc(Nc3cc(C#N)ncn3)nc3[nH]n(C)c(=O)c23)cccc1-c1ncn(C)n1` [Compound I-31, 6-((4-((2-methoxy-3-(1-methyl-1H-1,2,4-triazol-3-yl)phenyl)amino)-2-methyl-3-oxo-2,3-dihydro-1H-pyrazolo[3,4-b]pyridin-6-yl)amino)pyrimidine-4-carbonitrile], below 0.1 nM.
